Assay results from PubChem BioAssay AID1259408 (Genetic Toxicology Data Bank (GENE-TOX), 2018).
Active and inactive are the calls of the source. No rule for the calls is given here.

Tested on: GENE-TOX genotoxicity assays, various organisms and cells
Assay: GENE-TOX mutagenicity studies
Details: for call: Assay Type: In vivo carcinogenicity studies
[1] = Species/Cell Type: Escherichia coli polA (W3119 vs P3478), Assay Type: Rec-assay, DNA effects (bacterial DNA repair), Assay Code: RE1T, Evaluation Type: Evaluation A (Pre-1980)
[2] = Species/Cell Type: Mouse, Sex: Male, Assay Type: Sperm morphology, Assay Code: SPI-, Evaluation Type: Evaluation A (Pre-1980)
[3] = Species/Cell Type: Nonhuman, Assay Code: CCG+, Evaluation Type: Evaluation A (Pre-1980)
[4] = Species/Cell Type: Nonhuman, Assay Type: Sister-chromatid exchange (SCE) in vitro, Assay Code: SC2+, Evaluation Type: Evaluation B (Post-1980)
[5] = Species/Cell Type: Salmonella typhimurium (one or more of the five standard strains: TA98, TA100, TA1535, TA1537, and TA1538), Assay Type: Histidine reverse gene mutation, Ames assay, Assay Code: SAL-, Evaluation Type: Evaluation A (Pre-1980)
[6] = Species/Cell Type: Salmonella typhimurium, Assay Type: Forward and reverse gene mutation, host-mediated assay, Assay Code: HMA+, Evaluation Type: Evaluation A (Pre-1980)
[7] = Species/Cell Type: Human lymphocytes, Assay Type: Sister-chromatid exchange (SCE) in vitro, Assay Code: SCLT, Evaluation Type: Evaluation B (Post-1980)
[8] = Species/Cell Type: Human, Assay Type: Sister-chromatid exchange (SCE) in vitro, Assay Code: SC1T, Evaluation Type: Evaluation B (Post-1980)
[9] = Species/Cell Type: Nonhuman, Assay Code: CCGT, Evaluation Type: Evaluation A (Pre-1980)
[10] = Species/Cell Type: Nonhuman, Assay Type: Sister-chromatid exchange (SCE) in vitro, Assay Code: SC2+D, Dose Response: With dose response, Evaluation Type: Evaluation B (Post-1980)
[11] = Species/Cell Type: Salmonella typhimurium (one or more of the five standard strains: TA98, TA100, TA1535, TA1537, and TA1538), Assay Type: Histidine reverse gene mutation, Ames assay, Assay Code: SALT, Evaluation Type: Evaluation A (Pre-1980)
[12] = Species/Cell Type: Salmonella typhimurium (one or more of the five standard strains: TA98, TA100, TA1535, TA1537, and TA1538), Assay Type: Histidine reverse gene mutation, Ames assay, Assay Code: SAL+, Evaluation Type: Evaluation A (Pre-1980)
[13] = Species/Cell Type: Drosophila melanogaster, Assay Type: Sex-linked recessive lethal gene mutation, Assay Code: SRLT, Evaluation Type: Evaluation A (Pre-1980)
[14] = Species/Cell Type: Nonhuman, Assay Type: Sister-chromatid exchange (SCE) in vitro, Assay Code: SC2T, Evaluation Type: Evaluation B (Post-1980)

Question: Which mutagenic call (Species/Cell Type: Allium cepa, Assay Type: Chromosome aberrations, Assay Code: ALC-, Evaluation Type: Evaluation A (Pre-1980)) does the source give for `NC(N)=S` here?
Answer: inactive; negative

Question: And the mutagenic call (Species/Cell Type: Escherichia coli polA (W3110 vs P3478), Assay Type: Rec-assay, DNA effects (bacterial DNA repair), Assay Code: RE2-, Evaluation Type: Evaluation A (Pre-1980))?
Answer: inactive; negative

Question: And the mutagenic call [1]?
Answer: no conclusion

Question: What about the mutagenic call (Species/Cell Type: Fischer rat embryo (RLV/1706) cells, Assay Type: Cell transformation, viral enhanced, Assay Code: CTR+, Evaluation Type: Evaluation A (Pre-1980)) of the same compound?
Answer: active; positive

Question: And the mutagenic call (Species/Cell Type: Fischer rat embryo (SA7/RE) cells, Assay Type: Cell transformation, viral enhanced, Assay Code: CTA+, Evaluation Type: Evaluation A (Pre-1980))?
Answer: active; positive

Question: And the mutagenic call [2]?
Answer: inactive; negative

Question: And the call [3]?
Answer: active; positive

Question: And the mutagenic call [4]?
Answer: active; positive

Question: What about the mutagenic call (Species/Cell Type: Saccharomyces cerevisiae, Assay Type: Mitotic recombination or gene conversion, Assay Code: YEH-, Evaluation Type: Evaluation A (Pre-1980)) of the same compound?
Answer: inactive; negative

Question: What about the mutagenic call [5] of the same compound?
Answer: inactive; negative

Question: And the mutagenic call [6]?
Answer: active; positive

Question: And the mutagenic call (Species/Cell Type: Syrian hamster embryo (SA7/SHE) cells, Assay Type: Cell transformation, viral enhanced, Assay Code: CT7-, Evaluation Type: Evaluation A (Pre-1980))?
Answer: inactive; negative

Question: And the mutagenic call (Species/Cell Type: Syrian hamster embryo (SHE) cells, Assay Type: Cell transformation, clonal assay, Assay Code: CTC+, Evaluation Type: Evaluation A (Pre-1980))?
Answer: active; positive

Question: With `ClC/C=C/CCl` as the compound, how does the mutagenic call (Species/Cell Type: Drosophila melanogaster, Assay Type: Sex-linked recessive lethal gene mutation, Assay Code: SRL+, Evaluation Type: Evaluation A (Pre-1980)) read?
Answer: active; positive

Question: Which mutagenic call (Species/Cell Type: Chinese hamster lung (V79) cells, Assay Type: Forward gene mutation at the HPRT or ouabain locus, Assay Code: V79+, Evaluation Type: Evaluation A (Pre-1980)) does the source give for `Cc1cn([C@H]2C[C@H](O)[C@@H](CO)O2)c(=O)[nH]c1=O` here?
Answer: active; positive

Question: What about the mutagenic call (Species/Cell Type: Glycine max (soybean), Assay Type: Gene mutation, Assay Code: GLM-, Evaluation Type: Evaluation A (Pre-1980)) of the same compound?
Answer: inactive; negative

Question: And the mutagenic call [7]?
Answer: no conclusion

Question: What about the mutagenic call [8] of the same compound?
Answer: no conclusion

Question: What about the mutagenic call (Species/Cell Type: Mouse (C3H/10T1/2) cells, Assay Type: Cell transformation, Assay Code: CTH-, Evaluation Type: Evaluation A (Pre-1980)) of the same compound?
Answer: inactive; negative

Question: And the call [9]?
Answer: no conclusion

Question: What about the mutagenic call [10] of the same compound?
Answer: active; positive

Question: Which mutagenic call [8] does the source give for `NS(=O)(=O)c1cc(C(=O)O)c(NCc2ccco2)cc1Cl` here?
Answer: no conclusion

Question: What about the mutagenic call (Species/Cell Type: Saccharomyces cerevisiae, Assay Type: Mitotic recombination or gene conversion, Assay Code: YEC-*, Activation: With metabolic activation, Evaluation Type: Evaluation A (Pre-1980)) of the same compound?
Answer: inactive; negative

Question: And the mutagenic call [11]?
Answer: no conclusion

Question: How did the mutagenic call (Species/Cell Type: Human diploid fibroblasts, Assay Type: Unscheduled DNA synthesis (UDS) in vitro, DNA effects, Assay Code: UDH+, Evaluation Type: Evaluation A (Pre-1980)) turn out when `NC(=O)/C=C/c1ccc([N+](=O)[O-])o1` was run?
Answer: active; positive

Question: And the mutagenic call [12]?
Answer: active; positive

Question: `Oc1cccc2ncccc12` was tested. Which mutagenic call (Species/Cell Type: Salmonella typhimurium (one or more of the five standard strains: TA98, TA100, TA1535, TA1537, and TA1538), Assay Type: Histidine reverse gene mutation, Ames assay, Assay Code: SAL+*, Activation: With metabolic activation, Evaluation Type: Evaluation A (Pre-1980)) did it give?
Answer: active; positive

Question: `FC(F)F` was tested. Which mutagenic call [13] did it give?
Answer: no conclusion

Question: For `CC(C)(C)OOCO`, which mutagenic call (Species/Cell Type: Neurospora crassa, Assay Type: Reverse gene mutation, Assay Code: NER+, Evaluation Type: Evaluation A (Pre-1980)) is on record?
Answer: active; positive

Question: `CC(=O)Nc1c(I)c(NC(C)=O)c(I)c(C(=O)O)c1I` was tested. Which mutagenic call [7] did it give?
Answer: no conclusion

Question: What about the mutagenic call [8] of the same compound?
Answer: no conclusion

Question: `C=C(Cl)CCl` was tested. Which mutagenic call [12] did it give?
Answer: active; positive

Question: Which mutagenic call [6] does the source give for `NC(=S)NCCNC(N)=S` here?
Answer: active; positive

Question: For `O=S(O)CO`, which mutagenic call (Species/Cell Type: Drosophila melanogaster, Sex: Male, Assay Type: Heritable translocation test, chromosome aberrations, Assay Code: DHTT, Evaluation Type: Evaluation A (Pre-1980)) is on record?
Answer: no conclusion

Question: `Cc1cc2ccccc2c2ccc3c(F)cccc3c12` was tested. Which mutagenic call [11] did it give?
Answer: no conclusion

Question: Which mutagenic call (Species/Cell Type: Salmonella typhimurium, Assay Type: Forward and reverse gene mutation, host-mediated assay, Assay Code: HMAT, Evaluation Type: Evaluation A (Pre-1980)) does the source give for `Nc1nc(-c2cccc3ccccc23)cs1` here?
Answer: no conclusion

Question: For `[Cl][Rh]([Cl])[Cl]`, which mutagenic call (Species/Cell Type: Bacillus subtilis (H17 vs M45), Assay Type: Rec-assay, spot test, DNA effects (bacterial DNA repair), Assay Code: REW+, Evaluation Type: Evaluation A (Pre-1980)) is on record?
Answer: active; positive

Question: How did the mutagenic call [1] turn out when `CCCCN(CCCCO)N=O` was run?
Answer: no conclusion

Question: And the mutagenic call (Species/Cell Type: Nonhuman, Assay Type: Chromosome aberrations in vitro, Assay Code: CY&-, Evaluation Type: Evaluation A (Pre-1980))?
Answer: inactive; negative

Question: What about the call [3] of the same compound?
Answer: active; positive

Question: And the mutagenic call [10]?
Answer: active; positive

Question: And the mutagenic call (Species/Cell Type: Nonhuman, Assay Type: Sister-chromatid exchange (SCE) in vitro, Assay Code: SC2T, Evaluation Type: Evaluation A (Pre-1980))?
Answer: no conclusion

Question: And the mutagenic call [12]?
Answer: active; positive

Question: `O=C1c2c(O)ccc(O)c2C(=O)c2c(NCCNCCO)ccc(NCCNCCO)c21` was tested. Which mutagenic call [4] did it give?
Answer: active; positive

Question: How did the mutagenic call (Species/Cell Type: Chinese hamster lung (V79) cells, Assay Type: Forward gene mutation at the HPRT or ouabain locus, Assay Code: V79-, Evaluation Type: Evaluation A (Pre-1980)) turn out when `Oc1cc2cc3ccccc3c3ccc4cccc1c4c23` was run?
Answer: inactive; negative

Question: And the call [9]?
Answer: no conclusion

Question: And the mutagenic call [4]?
Answer: active; positive

Question: And the mutagenic call [11]?
Answer: no conclusion

Question: `CC1(C)S[C@@H]2[C@H](NC(=O)Cc3ccccc3)C(=O)N2[C@H]1C(=O)O` was tested. Which mutagenic call [13] did it give?
Answer: no conclusion

Question: What about the mutagenic call [5] of the same compound?
Answer: inactive; negative

Question: How did the mutagenic call (Species/Cell Type: Escherichia coli WP2, Assay Type: Tryptophan reverse gene mutation, Assay Code: WP2+D, Dose Response: With dose response, Evaluation Type: Evaluation A (Pre-1980)) turn out when `O=C1NCCN1c1ncc([N+](=O)[O-])s1` was run?
Answer: active; positive

Question: What about the mutagenic call (Species/Cell Type: Escherichia coli WP2 UVRA, Assay Type: Tryptophan reverse gene mutation, Assay Code: WPU+D, Dose Response: With dose response, Evaluation Type: Evaluation A (Pre-1980)) of the same compound?
Answer: active; positive

Question: What about the mutagenic call (Species/Cell Type: Human, Sex: Male, Assay Type: Sperm morphology, Assay Code: SPH-, Evaluation Type: Evaluation A (Pre-1980)) of the same compound?
Answer: inactive; negative

Question: And the mutagenic call (Species/Cell Type: Neurospora crassa, Assay Type: Forward gene mutation, Assay Code: NEF+, Evaluation Type: Evaluation A (Pre-1980))?
Answer: active; positive

Question: And the call [3]?
Answer: active; positive

Question: And the mutagenic call (Species/Cell Type: Saccharomyces cerevisiae, Assay Type: Mitotic recombination or gene conversion, Assay Code: YEH+, Evaluation Type: Evaluation A (Pre-1980))?
Answer: active; positive

Question: What about the mutagenic call [12] of the same compound?
Answer: active; positive

Question: For `Nc1ncnc2c1ccn2[C@@H]1O[C@H](CO)[C@@H](O)[C@H]1O`, which mutagenic call (Species/Cell Type: Fischer rat embryo (RLV/1706) cells, Assay Type: Cell transformation, viral enhanced, Assay Code: CTR-, Evaluation Type: Evaluation A (Pre-1980)) is on record?
Answer: inactive; negative

Question: Which mutagenic call [14] does the source give for `C/C=C/C#CC#CC#C/C=C/C(O)CO` (centres undefined) here?
Answer: no conclusion

Question: For `COP(=S)(OC)Oc1cc(Cl)c(Br)cc1Cl`, which mutagenic call [13] is on record?
Answer: no conclusion

Question: For `c1cncc(C2=NCCC2)c1`, which mutagenic call [14] is on record?
Answer: no conclusion

Question: Which results are given for `[Cl][Zn][Cl]`?
Answer: mutagenic call (Species/Cell Type: Bacillus subtilis (H17 vs M45), Assay Type: Rec-assay, spot test, DNA effects (bacterial DNA repair), Assay Code: REW-, Evaluation Type: Evaluation A (Pre-1980)): inactive; negative; mutagenic call (Species/Cell Type: Human lymphocytes or leukocytes, Assay Type: Chromosome aberrations in vitro, Assay Code: CY7-, Evaluation Type: Evaluation A (Pre-1980)): inactive; negative; mutagenic call [2]: inactive; negative; mutagenic call [12]: active; positive; mutagenic call [6]: active; positive; mutagenic call (Species/Cell Type: Syrian hamster embryo (SA7/SHE) cells, Assay Type: Cell transformation, viral enhanced, Assay Code: CT7+, Evaluation Type: Evaluation A (Pre-1980)): active; positive

Question: For `Nc1c[nH]c(=O)[nH]c1=O`, which mutagenic call (Species/Cell Type: Allium cepa, Assay Type: Chromosome aberrations, Assay Code: ALC+, Evaluation Type: Evaluation A (Pre-1980)) is on record?
Answer: active; positive

Question: With `CCCOS(C)(=O)=O` as the compound, how does the mutagenic call (Species/Cell Type: Hordeum vulgare (barley), Assay Type: Chromosome aberrations, Assay Code: HOC+, Evaluation Type: Evaluation A (Pre-1980)) read?
Answer: active; positive

Question: And the mutagenic call (Species/Cell Type: Hordeum vulgare (barley), Assay Type: Gene mutation, Assay Code: HOM+D, Dose Response: With dose response, Evaluation Type: Evaluation A (Pre-1980))?
Answer: active; positive

Question: And the mutagenic call (Species/Cell Type: Mammalian germ cells, Sex: Male, Assay Type: Chromosome aberrations in vivo, Assay Code: CY9T, Evaluation Type: Evaluation A (Pre-1980))?
Answer: no conclusion

Question: And the mutagenic call (Species/Cell Type: Mouse germ cells, Sex: Male, Assay Type: Unscheduled DNA synthesis (UDS) in vivo, DNA effects, Assay Code: UDT+, Evaluation Type: Evaluation A (Pre-1980))?
Answer: active; positive

Question: And the mutagenic call (Species/Cell Type: Mouse, Sex: Male, Assay Type: Specific locus test, gene mutation, Assay Code: SLT+, Evaluation Type: Evaluation A (Pre-1980))?
Answer: active; positive

Question: What about the mutagenic call (Species/Cell Type: Rodents, Sex: Male, Assay Type: Dominant lethal test, Assay Code: DLT+, Evaluation Type: Evaluation A (Pre-1980)) of the same compound?
Answer: active; positive
